Laboratory results published in US20060063759A1, “Tricyclic steroid hormone nuclear receptor modulators” (priority 2002, published 2006).

Experiments:
[1] = biological target: T1, human MR (Homo sapiens, UniProt P08235); experiment: Mineralocorticoid Receptor Binding Assay ([3H]-aldosterone); settings: [3H]-aldosterone binding, human MR expressed in Sf9 cells; read-out: MR Ki
T1 construct: The full length human MR gene is cloned from a human kidney or human brain cDNA library; His tag from the pAcHLT vector (own knowledge); made in house; host or cells: Sf9 insect cells (baculovirus, pAcHLT transfer vector)
T1 sequence (P08235 1-984): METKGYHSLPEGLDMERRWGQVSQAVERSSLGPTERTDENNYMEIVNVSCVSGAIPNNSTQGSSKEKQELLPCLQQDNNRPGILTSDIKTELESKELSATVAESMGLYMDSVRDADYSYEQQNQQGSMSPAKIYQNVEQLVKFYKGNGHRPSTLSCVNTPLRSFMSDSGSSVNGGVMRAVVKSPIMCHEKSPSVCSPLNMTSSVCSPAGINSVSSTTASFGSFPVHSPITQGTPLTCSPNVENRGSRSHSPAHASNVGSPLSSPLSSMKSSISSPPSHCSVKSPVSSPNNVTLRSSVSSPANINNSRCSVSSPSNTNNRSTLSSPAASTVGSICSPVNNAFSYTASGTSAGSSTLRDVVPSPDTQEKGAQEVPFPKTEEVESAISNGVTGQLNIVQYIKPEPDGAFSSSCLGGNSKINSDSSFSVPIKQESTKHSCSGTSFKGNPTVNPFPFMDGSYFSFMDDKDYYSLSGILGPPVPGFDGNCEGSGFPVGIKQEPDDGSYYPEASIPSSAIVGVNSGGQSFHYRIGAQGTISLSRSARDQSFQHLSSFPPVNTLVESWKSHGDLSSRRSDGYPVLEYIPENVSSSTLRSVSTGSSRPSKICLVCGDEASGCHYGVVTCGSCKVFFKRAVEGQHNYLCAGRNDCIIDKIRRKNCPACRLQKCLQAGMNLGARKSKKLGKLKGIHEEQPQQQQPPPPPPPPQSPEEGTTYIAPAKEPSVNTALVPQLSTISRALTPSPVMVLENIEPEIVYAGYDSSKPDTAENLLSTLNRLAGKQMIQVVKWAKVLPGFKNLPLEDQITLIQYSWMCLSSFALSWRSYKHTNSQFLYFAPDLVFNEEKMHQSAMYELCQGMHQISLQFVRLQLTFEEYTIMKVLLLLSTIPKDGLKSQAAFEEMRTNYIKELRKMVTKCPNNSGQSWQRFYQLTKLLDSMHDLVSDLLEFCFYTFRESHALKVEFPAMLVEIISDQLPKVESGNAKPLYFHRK
How it was run: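 Receptor source: freeze-thaw lysate of baculovirus-infected Sf9 cells carrying full-length human MR, 20-25 μg protein. Incubation ~16 h at 4 °C with shaking, pH 7.5 buffer containing 30 mM sodium molybdate and 10% glycerol.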

[2] = biological target: T2, glucocorticoid receptor (Homo sapiens, UniProt P04150); experiment: Glucocorticoid Receptor Binding Assay ([3H]-dexamethasone, A549 cell extract); settings: [3H]-dexamethasone binding, read-out: GR Ki
T2 construct: containing 50-200 ug of A549 cell extract and 1.86 nM [^3H]-dexamethasone; host or cells: A549 human lung epithelial cells (sonicated cell extract)
T2 sequence (P04150 1-777): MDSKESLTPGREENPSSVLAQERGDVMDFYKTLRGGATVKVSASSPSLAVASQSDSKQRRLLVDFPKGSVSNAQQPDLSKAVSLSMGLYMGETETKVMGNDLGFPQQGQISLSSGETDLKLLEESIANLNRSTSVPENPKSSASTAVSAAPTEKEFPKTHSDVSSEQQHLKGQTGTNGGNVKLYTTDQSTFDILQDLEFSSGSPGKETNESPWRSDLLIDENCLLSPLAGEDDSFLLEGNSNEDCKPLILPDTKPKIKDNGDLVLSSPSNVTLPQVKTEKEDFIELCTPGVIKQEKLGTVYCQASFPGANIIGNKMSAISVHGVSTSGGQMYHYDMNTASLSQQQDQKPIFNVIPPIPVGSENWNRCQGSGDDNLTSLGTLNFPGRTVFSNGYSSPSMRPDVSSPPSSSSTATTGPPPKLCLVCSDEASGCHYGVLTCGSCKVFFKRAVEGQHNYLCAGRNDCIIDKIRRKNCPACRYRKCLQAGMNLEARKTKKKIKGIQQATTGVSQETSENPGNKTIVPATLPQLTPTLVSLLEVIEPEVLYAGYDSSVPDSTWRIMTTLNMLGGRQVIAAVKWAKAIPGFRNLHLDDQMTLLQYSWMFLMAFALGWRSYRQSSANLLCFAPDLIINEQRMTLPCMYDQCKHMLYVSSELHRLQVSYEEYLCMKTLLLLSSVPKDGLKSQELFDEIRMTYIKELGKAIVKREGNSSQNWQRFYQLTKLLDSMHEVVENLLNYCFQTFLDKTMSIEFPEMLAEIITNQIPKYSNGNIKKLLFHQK
How it was run: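 Displacement of [3H]-dexamethasone (1.86 nM) from glucocorticoid receptor in sonicated A549 lung epithelial cell extracts, 16 h at 4 °C, pH 7.2 molybdate-containing buffer. Bound radioactivity was scintillation-counted after charcoal/dextran stripping of free ligand.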

Structure (SMILES) | melting point | Ki [1] | Ki [2]
OCc1ccccc1C=C1c2ccccc2CCc2ccccc21 [Example 74, [2-(10,11-Dihydro-dibenzo[a,d]cyclohepten-5-ylidenemethyl)-phenyl]-methanol] | 121.8 °C | < 500 nM | < 500 nM
N#Cc1ccccc1C=C1c2ccccc2CCc2ccccc21 [Example 80, 2-(10,11-Dihydro-dibenzo[a,d]cyclohepten-5-ylidenemethyl)-benzonitrile] | 185.4 °C | < 500 nM | < 500 nM
N#Cc1cccc(C=C2c3ccccc3CCc3ccccc32)c1 [Example 81, 3-(10,11-Dihydro-dibenzo[a,d]cyclohepten-5-ylidenemethyl)-benzonitrile] | 115.7 °C | < 500 nM | < 10000 nM
Nc1cccc(C=C2c3ccccc3CCc3ccccc32)c1 [Example 86, 3-(10,11-Dihydro-dibenzo[a,d]cyclohepten-5-ylidenemethyl)-phenylamine] | 204.3 °C | < 500 nM | < 500 nM
Nc1ccccc1C=C1c2ccccc2CCc2ccccc21 [Example 87, 2-(10,11-Dihydro-dibenzo[a,d]cyclohepten-5-ylidenemethyl)-phenylamine] | 145.2 °C | < 500 nM | < 500 nM
Nc1ccc(C=C2c3ccccc3CCc3ccccc32)cc1 [Example 88, 4-(10,11-Dihydro-dibenzo[a,d]cyclohepten-5-ylidenemethyl)-phenylamine] | > 250 °C | < 500 nM | < 1000 nM
CCS(=O)(=O)Nc1cccc(C=C2c3ccccc3CCc3ccccc32)c1 [Example 91, Ethanesulfonic acid [3-(10,11-hydro-dibenzo[a,d]cyclohepten-5-ylidenemethyl)-phenyl]-amide] | 180.2 °C | < 500 nM | < 500 nM
CC(C)S(=O)(=O)Nc1cccc(C=C2c3ccccc3CCc3ccccc32)c1 [Example 92, Propane-2-sulfonic acid [3-(10,11-dihydro-dibenzo[a,d]cyclohepten-5-ylidenemethyl)-phenyl]-amide] | 187.7 °C | < 500 nM | < 500 nM
O=S(=O)(Nc1cccc(C=C2c3ccccc3CCc3ccccc32)c1)c1ccccc1 [Example 93, N-[3-(10,11-Dihydrodibenzo[a,d]cyclohepten-5-ylidenemethyl)-phenyl]-benzenesulfonamide] | 121.9 °C | < 500 nM | < 500 nM
Cc1noc(C)c1S(=O)(=O)Nc1cccc(C=C2c3ccccc3CCc3ccccc32)c1 [Example 94, 3,5-Dimethyl-isoxazole-4-sulfonic acid [3-(10,11-dihydro-dibenzo[a,d]cyclohepten-5-ylidenemethyl)-phenyl]-amide] | 149.3 °C | < 500 nM | < 500 nM
Cn1cnc(S(=O)(=O)Nc2cccc(C=C3c4ccccc4CCc4ccccc43)c2)c1 [Example 95, 1-Methyl-1H-imidazole-4-sulfonic acid [3-(10,11-dihydro-dibenzo[a,d]cyclohepten-5-ylidenemethyl)-phenyl]-amide] | 257 °C | < 500 nM | < 1000 nM
CS(=O)(=O)Nc1ccc(C=C2c3ccccc3CCc3ccccc32)cc1 [Example 99, N-[4-(10,11-Dihydro-dibenzo[a,d]cyclohepten-5-ylidenemethyl)-phenyl]-methanesulfonamide] | 210.7 °C | < 500 nM | < 1000 nM
CC(=O)Nc1ccc(C=C2c3ccccc3CCc3ccccc32)cc1 [Example 116, N-[4-(10,11-Dihydro-dibenzo[a,d]cyclohepten-5-ylidenemethyl)-phenyl]-acetamide] | 134.8 °C | < 500 nM | < 500 nM
O=C(Nc1ccc(C=C2c3ccccc3CCc3ccccc32)cc1)c1ccncc1 [Example 117, N-[4-(10,11-Dihydro-dibenzo[a,d]cyclohepten-5-ylidenemethyl)-phenyl]-isonicotinamide] | 252.1 °C | < 500 nM | < 500 nM

Next, values leading:

melting point | Ki [1] | Ki [2] | Structure (SMILES)
76.6 °C | < 500 nM | < 500 nM | Oc1cccc(CC2c3ccccc3CCc3ccccc32)c1 [Example 126, 3-(10,11-Dihydro-5H-dibenzo[a,d]cyclohepten-5-ylmethyl)-phenol]
143.2 °C | < 500 nM | < 1000 nM | Oc1cccc(C=C2c3ccccc3CCc3ccccc32)c1F [Example 153, 3-(10,11-Dihydro-dibenzo[a,d]cyclohepten-5-ylidenemethyl)-2-fluoro-phenol]
182.4 °C | < 500 nM | < 500 nM | CS(=O)(=O)Nc1cccc(C=C2c3ccc(Cl)cc3CCc3cc(Cl)ccc32)c1 [Example 182, N-[3-(2,8-Dichloro-10,11-dihydro-dibenzo[a,d]cyclohepten-5-ylidenemethyl)-phenyl]-methanesulfonamide]
109.6 °C | < 500 nM | < 500 nM | COc1ccc2c(c1)CCc1cc(OC)ccc1C2=Cc1cccc(NS(C)(=O)=O)c1 [Example 191, N-[3-(2,8-Dimethoxy-10,11-dihydro-dibenzo[a,d]cyclohepten-5-ylidenemethyl)-phenyl]-methanesulfonamide]
129.5 °C | < 500 nM | < 1000 nM | Oc1cccc(C=C2c3cccc(F)c3CCc3c(F)cccc32)c1 [Example 202, 3-(1,9-Difluoro-10,11-dihydro-dibenzo[a,d]cyclohepten-5-ylidenemethyl)-phenol]
221.2 °C | < 500 nM | < 10000 nM | Oc1cccc(/C=C2/c3ccc(Cl)cc3CCc3cccnc32)c1 [Example 244, 3-(8-Chloro-5,6-dihydro-benzo[5,6]cyclohepta[1,2-b]pyridin-11-ylidenemethyl)-phenol]
> 250 °C | < 500 nM | < 10000 nM | Oc1cccc(/C=C2\c3ccc(Cl)cc3CCc3cccnc32)c1 [Example 245, 3-(8-Chloro-5,6-dihydro-benzo[5,6]cyclohepta[1,2-b]pyridin-11-ylidenemethyl)-phenol]
199 to 201 °C | < 500 nM | < 10000 nM | CS(=O)(=O)Nc1cccc(C=C2c3ccccc3C3C(c4ccccc42)C3(Cl)Cl)c1 (stereo not drawn) [Example 259, N-[3-(8,8-Dichloro-4-ylidenemethyl-2,3,5,6-dibenzobicyclo[5.1.0]octane)-phenyl]-methanesulfonamide]
